Assay results as given in ChEMBL document CHEMBL3393026, “A selective small molecule NOP (ORL-1 receptor) partial agonist for the treatment of anxiety” (Bioorg Med Chem Lett, 2015).

Assays:
[1] = system: Rattus norvegicus; assay: Sedative activity in Long-Evans hooded rat assessed as vertical movements at 1 mg/kg, ip by spontaneous locomotor activity test; format: organism-based; parameters: dose 1 mg/kg, route intraperitoneal; conditions: in vivo
[2] = system: Rattus norvegicus; assay: Sedative activity in Long-Evans hooded rat assessed as vertical movements at 0.03 mg/kg, ip by spontaneous locomotor activity test; format: organism-based; parameters: dose 0.03 mg/kg, route intraperitoneal; conditions: in vivo
[3] = system: Rattus norvegicus; assay: Sedative activity in Long-Evans hooded rat assessed as vertical movements at 10 mg/kg, ip by spontaneous locomotor activity test; format: organism-based; parameters: dose 10 mg/kg, route intraperitoneal; conditions: in vivo
[4] = system: Rattus norvegicus; assay: Sedative activity in Long-Evans hooded rat assessed as vertical movements at 0.1 mg/kg, ip by spontaneous locomotor activity test; format: organism-based; parameters: dose 0.1 mg/kg, route intraperitoneal; conditions: in vivo
[5] = system: Rattus norvegicus; assay: Sedative activity in Long-Evans hooded rat assessed as vertical movements at 0.3 mg/kg, ip by spontaneous locomotor activity test; format: organism-based; parameters: dose 0.3 mg/kg, route intraperitoneal; conditions: in vivo
[6] = system: Rattus norvegicus; assay: Anxiolytic activity in Long-Evans hooded rat assessed as open arm time at 0.03 mg/kg, ip by elevated plus maze test; format: functional; conditions: route intraperitoneal
[7] = system: Rattus norvegicus; assay: Anxiolytic activity in Long-Evans hooded rat assessed as open arm time at 0.3 mg/kg, ip by elevated plus maze test; format: functional; conditions: route intraperitoneal
[8] = system: Rattus norvegicus; assay: Sedative activity in Long-Evans hooded rat assessed as vertical movements at 3 mg/kg, ip by spontaneous locomotor activity test; format: organism-based; parameters: dose 3 mg/kg, route intraperitoneal; conditions: in vivo
[9] = system: Rattus norvegicus; assay: Anxiolytic activity in Long-Evans hooded rat assessed as open arm time at 3 mg/kg, ip by elevated plus maze test; format: functional; conditions: route intraperitoneal
[10] = system: Rattus norvegicus; assay: Anxiolytic activity in Long-Evans hooded rat assessed as open arm time at 0.1 mg/kg, ip by elevated plus maze test; format: functional; conditions: route intraperitoneal
[11] = system: Rattus norvegicus; assay: Anxiolytic activity in Long-Evans hooded rat assessed as open arm time at 1 mg/kg, ip by elevated plus maze test; format: functional; conditions: route intraperitoneal
[12] = system: Rattus norvegicus; assay: Anxiolytic activity in Long-Evans hooded rat assessed as open arm time at 0.5 mg/kg, ip by elevated plus maze test; format: functional; conditions: route intraperitoneal
[13] = system: Rattus norvegicus; assay: Sedative activity in Long-Evans hooded rat assessed as vertical movements at 0.5 mg/kg, ip by spontaneous locomotor activity test; format: organism-based; parameters: dose 0.5 mg/kg, route intraperitoneal; conditions: in vivo

Structure (SMILES) | Activity [1] | Activity [2] | Activity [3] | Activity [4] | Activity [5] | Activity [6] | Activity [7] | Activity [8] | Activity [9] | Activity [10] | Activity [11] | Activity [12] | Activity [13]
CCCCN(Cc1ccccc1)C[C@H](O)CN1CN(c2ccc(F)cc2)C2(CCN(CC3CCCCCCC3)CC2)C1=O | 7.6% | -0.4% | -6.2% | 11.4% | 16% | 5.9% | 54.4% | 2.2% | 24% | 72.5% | 57.8% |  | 
O=C1Nc2ccc(Cl)cc2C(c2ccccc2Cl)=NC1O (stereo not drawn) [LORAZEPAM] |  |  |  |  |  |  |  |  |  |  |  | 222.4% | -72%
